PubChem BioAssay AID1963977 (Molecular Pharmacology Branch, DTP, NCI, 2024)
pIC50: −log10 of the molar value.

System: 624824-186-R-J3-PDC multicell spheroids, viability
Assay: Anticancer human tumor 624824-186-R-J3-PDC patient-derived colon adenocarcinoma cell line growth inhibition [PI3K]
Settings: for pIC50: curve of first compound; for viability, T/C: stronger effect = lower value
Summary of the method: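 Complex 3D spheroids (cancer cells + endothelial HUVEC + mesenchymal stem cells); drug pairs of targeted agent x inavolisib/alpelisib/duvelisib/copanlisib; half-log series from ~Cmax, max 10 microM if Cmax unknown; endpoint viability.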

[1] = second compound 0.00316 µM, first compound 0.00316 µM
[2] = second compound 0.00316 µM, first compound 0.01 µM
[3] = second compound 0.00316 µM, first compound 0.0316 µM
[4] = second compound 0.00316 µM, first compound 0.1 µM
[5] = second compound 0.01 µM, first compound 0.00316 µM
[6] = second compound 0.01 µM, first compound 0.01 µM
[7] = second compound 0.01 µM, first compound 0.0316 µM
[8] = second compound 0.01 µM, first compound 0.1 µM
[9] = second compound 0.0316 µM, first compound 0.00316 µM
[10] = second compound 0.0316 µM, first compound 0.01 µM
[11] = second compound 0.0316 µM, first compound 0.0316 µM
[12] = second compound 0.0316 µM, first compound 0.1 µM
[13] = second compound 0.1 µM, first compound 0.00316 µM
[14] = second compound 0.1 µM, first compound 0.01 µM
[15] = second compound 0.1 µM, first compound 0.0316 µM
[16] = second compound 0.1 µM, first compound 0.1 µM
[17] = second compound 0.316 µM, first compound 0.00316 µM
[18] = second compound 0.316 µM, first compound 0.01 µM
[19] = second compound 0.316 µM, first compound 0.0316 µM
[20] = second compound 0.316 µM, first compound 0.1 µM
[21] = second compound 1 µM, first compound 0.00316 µM
[22] = second compound 1 µM, first compound 0.01 µM
[23] = second compound 1 µM, first compound 0.0316 µM
[24] = second compound 1 µM, first compound 0.1 µM
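Further: spheroids exposed to agents for seven days before luminescence read.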
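Wherever viability, T/C is given: luminescent signal used as a stand-in for spheroid viability; percent viability relative to DMSO vehicle control wells taken as 100%.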

Compound `CCN1CCN(Cc2ccc(Nc3ncc(F)c(-c4cc(F)c5nc(C)n(C(C)C)c5c4)n3)nc2)CC1` + COc1c(OCCCN2CCOCC2)ccc2c3n(c(=NC(=O)c4cnc(N)nc4)nc12)CCN3 has a pIC50 (second compound 0.00316 µM) of under 6.00, a pIC50 (second compound 0.01 µM) of under 6.00 and a pIC50 (second compound 0.0316 µM) of under 6.00. It also gave a pIC50 (second compound 0.1 µM) of 7.22, a pIC50 (second compound 0.316 µM) of over 8.50 and a pIC50 (second compound 1 µM) of over 8.50. The viability, T/C [1] was 99%, the viability, T/C [2] was 107% and the viability, T/C [3] was 104%. For the same compound, the viability, T/C [4] was 116%, the viability, T/C (second compound 0.00316 µM, first compound 0.316 µM) was 107% and the viability, T/C (second compound 0.00316 µM, first compound 1 µM) was 94.8%. For the same compound, the viability, T/C [5] was 99.2%, the viability, T/C [6] was 94.9% and the viability, T/C [7] was 99.7%. The viability, T/C [8] was 95.2%, the viability, T/C (second compound 0.01 µM, first compound 0.316 µM) was 76.5% and the viability, T/C (second compound 0.01 µM, first compound 1 µM) was 74.7%. It also gave a viability, T/C [9] of 99%, a viability, T/C [10] of 99.1% and a viability, T/C [11] of 88.3%. It also gave a viability, T/C [12] of 68.5%, a viability, T/C (second compound 0.0316 µM, first compound 0.316 µM) of 57.5% and a viability, T/C (second compound 0.0316 µM, first compound 1 µM) of 61.5%. For the same compound, the viability, T/C [13] was 81%, the viability, T/C [14] was 73.2% and the viability, T/C [15] was 57.5%. For the same compound, the viability, T/C [16] was 40.8%, the viability, T/C (second compound 0.1 µM, first compound 0.316 µM) was 40.7% and the viability, T/C (second compound 0.1 µM, first compound 1 µM) was 50.5%. For the same compound, the viability, T/C [17] was 48.4%, the viability, T/C [18] was 41.7% and the viability, T/C [19] was 41.5%. The viability, T/C [20] was 27.4%, the viability, T/C (second compound 0.316 µM, first compound 0.316 µM) was 41.7% and the viability, T/C (second compound 0.316 µM, first compound 1 µM) was 52.4%. For the same compound, the viability, T/C [21] was 27.7%, the viability, T/C [22] was 32.4% and the viability, T/C [23] was 23.4%. It also gave a viability, T/C [24] of 24.3%, a viability, T/C (second compound 1 µM, first compound 0.316 µM) of 34.9% and a viability, T/C (second compound 1 µM, first compound 1 µM) of 54.8%.
Compound `Cn1ncnc1[C@H]1c2n[nH]c(=O)c3cc(F)cc(c23)N[C@@H]1c1ccc(F)cc1` + COc1c(OCCCN2CCOCC2)ccc2c3n(c(=NC(=O)c4cnc(N)nc4)nc12)CCN3 has a pIC50 (second compound 0.00316 µM) of under 7.00, a pIC50 (second compound 0.01 µM) of under 7.00 and a pIC50 (second compound 0.0316 µM) of under 7.00. For the same compound, the pIC50 (second compound 0.1 µM) was under 7.00, the pIC50 (second compound 0.316 µM) was over 9.50 and the pIC50 (second compound 1 µM) was over 9.50. It also gave a viability, T/C (second compound 0.00316 µM, first compound 0.000316 µM) of 103%, a viability, T/C (second compound 0.00316 µM, first compound 0.001 µM) of 97.5% and a viability, T/C [1] of 102%. The viability, T/C [2] was 96.3%, the viability, T/C [3] was 90.1% and the viability, T/C [4] was 102%. For the same compound, the viability, T/C (second compound 0.01 µM, first compound 0.000316 µM) was 115%, the viability, T/C (second compound 0.01 µM, first compound 0.001 µM) was 110% and the viability, T/C [5] was 102%. It also gave a viability, T/C [6] of 93.1%, a viability, T/C [7] of 97.1% and a viability, T/C [8] of 107%. It also gave a viability, T/C (second compound 0.0316 µM, first compound 0.000316 µM) of 91.1%, a viability, T/C (second compound 0.0316 µM, first compound 0.001 µM) of 103% and a viability, T/C [9] of 88.5%. The viability, T/C [10] was 90.8%, the viability, T/C [11] was 87.2% and the viability, T/C [12] was 97.3%. The viability, T/C (second compound 0.1 µM, first compound 0.000316 µM) was 77.1%, the viability, T/C (second compound 0.1 µM, first compound 0.001 µM) was 76% and the viability, T/C [13] was 83.1%. The viability, T/C [14] was 73.3%, the viability, T/C [15] was 75.3% and the viability, T/C [16] was 71%. It also gave a viability, T/C (second compound 0.316 µM, first compound 0.000316 µM) of 48.3%, a viability, T/C (second compound 0.316 µM, first compound 0.001 µM) of 48.3% and a viability, T/C [17] of 54%. For the same compound, the viability, T/C [18] was 44.9%, the viability, T/C [19] was 48.7% and the viability, T/C [20] was 46%. For the same compound, the viability, T/C (second compound 1 µM, first compound 0.000316 µM) was 27.3%, the viability, T/C (second compound 1 µM, first compound 0.001 µM) was 28% and the viability, T/C [21] was 30.1%. For the same compound, the viability, T/C [22] was 25.9%, the viability, T/C [23] was 23.9% and the viability, T/C [24] was 27%.
